This is an account of results in US9481654B2, “Compositions and methods for inhibition of the JAK pathway” (Rigel Pharmaceuticals, Inc., priority 2006, dated 2016).

Holding throughout (type): cell-based
Test [1] concerns IL-4 stimulated CD23 upregulation in human Ramos B cells (JAK-1/JAK-3, Stat-6). Description: Assay for Ramos B-Cell Line Stimulated with IL-4 (CD23 upregulation, FACS). The note with it: Table III Example 3. An outline of the steps:
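Flow cytometry of CD23 staining after 20-24 h IL-4 stimulation (50 units/mL final) of human Ramos B cells in RPMI with 5% serum. Cells, 5×10^4 per point, received compound or DMSO vehicle for 1 h at 37° C prior to stimulation.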

For test [2], the system named is primary human T-cells (IL-2 induced proliferation, JAK-1/JAK-3, Stat-5). Description: Primary Human T-Cell Proliferation Assay Stimulated with IL-2 (CellTiter-Glo). The settings on record: Table III Example 4. An outline of the steps: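 Read-out is intracellular ATP luminescence (CellTiter-Glo) after 72 h at 37 °C of IL-2-driven growth. Cells, pre-stimulated via TCR and CD28 then washed free of IL-2, were resuspended in Yssel's medium, given 80 U/mL IL-2 in the cell suspension plus duplicate compound; unstimulated wells lacked IL-2.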

Test [3] has as its system IFNγ induced ICAM-1 (CD54) up-regulation in U937 human monocytic cells (JAK/Stat pathway). Description: U937 IFNγ ICAM1 FACS Assay. The note with it: Table III Example 6; 10 ng/mL IFNγ, 18-24 hours. An outline of the steps: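 Flow cytometry gave ICAM-1 (CD54) up-regulation as ICAM-APC geometric mean within the live-cell gate, alongside % viable cells. Human monocytic U937 cells received 3-fold serial compound dilutions for 30 min at 37 °C, followed by IFNγ stimulation lasting 18–24 h. Dose curves yielded EC50s.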

One may read the IC50 as the concentration that gives 50% inhibition. A lower IC50 goes with higher potency. On to `CCOC(=NS(=O)(=O)c1cccc(Nc2ncc(C)c(Nc3cccc(CNS(=O)(=O)C4CC4)c3)n2)c1)OCC` [Compound I-128, N4-(3-cyclopropylsulfonylaminomethyl)phenyl-N2-[3-(diethoxy)carbonimidylsulfonyl]phenyl-5-methyl-2,4-pyrimidinediamine], for which the IC50 turned out to be 157 nM in test [1], 62.2 nM in test [2] and 707 nM in test [3].
For `Cc1cnc(Nc2ccc(S(N)(=O)=O)cc2)nc1Nc1ccc(CNS(=O)(=O)C2CC2)c(Cl)c1` [Compound I-129, N2-(4-aminosulfonyl)phenyl-N4-(3-chloro-4-cyclopropylsulfonylaminomethyl)phenyl-5-methyl-2,4-pyrimidinediamine], in that order: 161 nM, 432 nM and 2510 nM.
For `Cc1cnc(Nc2cccc(S(=O)(=O)Nc3ccccc3)c2)nc1Nc1ccc(CNS(=O)(=O)C2CC2)cc1` [Compound I-150, N4-(4-cyclopropylsulfonylaminomethyl)phenyl-5-methyl-N2-(3-phenylaminosulfonyl)phenyl-2,4-pyrimidinediamine], the IC50 in test [1] worked out at 88.6 nM; in test [2], 127 nM; in test [3], 565 nM.
For `CNS(=O)(=O)c1ccc(Nc2ncc(C)c(Nc3ccc(CNS(=O)(=O)C4CC4)cc3)n2)cc1` [Compound I-163, N4-(4-cyclopropylsulfonylaminomethyl)phenyl-5-methyl-N2-(4-methylaminosulfonyl)phenyl-2,4-pyrimidinediamine], in that order: 46.7 nM, 52.7 nM and 143 nM.
For `Cc1cnc(Nc2ccc(S(=O)(=O)NC3CCCC3)cc2)nc1Nc1ccc(CNS(=O)(=O)C2CC2)cc1` [Compound I-166, N2-(4-cyclopentylaminosulfonyl)phenyl-N4-(4-cyclopropylsulfonylaminomethyl)phenyl-5-methyl-2,4-pyrimidinediamine], in that order: 82.5 nM, 212 nM and 280 nM.
On to `CCC(=O)N(Cc1ccc(Nc2nc(Nc3ccc(S(N)(=O)=O)cc3)ncc2C)cc1)S(=O)(=O)C1CC1` [Compound I-167, N2-(4-aminosulfonyl)phenyl-N4-[4-(N-cyclopropylsulfonyl-N-propionyl)aminomethyl]phenyl-5-methyl-2,4-pyrimidinediamine], for which the IC50 in test [1] was determined as 132 nM; in test [2], 116 nM; in test [3], 587 nM.
For `Cc1cnc(Nc2cccc(S(=O)(=O)NCc3ccncc3)c2)nc1Nc1ccc(CNS(=O)(=O)C2CC2)cc1` [Compound I-169, N4-(4-cyclopropylsulfonylaminomethyl)phenyl-5-methyl-N2-[3-(4-pyridylmethyl)aminosulfonyl]phenyl-2,4-pyrimidinediamine] the same measures were 140 nM, 206 nM and 478 nM.
For `Cc1cnc(Nc2cccc(S(=O)(=O)NC3CCCC3)c2)nc1Nc1ccc(CNS(=O)(=O)C2CC2)cc1` [Compound I-170, N2-(3-cyclopentylaminosulfonyl)phenyl-N4-(4-cyclopropylsulfonylaminomethyl)phenyl-5-methyl-2,4-pyrimidinediamine], in that order: 136 nM, 172 nM and 238 nM.
`Cc1cnc(Nc2ccc(S(=O)(=O)NC(C)C)cc2)nc1Nc1ccc(CNS(=O)(=O)C2CC2)cc1` [Compound I-172, N4-(4-cyclopropylsulfonylaminomethyl)phenyl-N2-(4-isopropylaminosulfonyl)phenyl-5-methyl-2,4-pyrimidinediamine]: the IC50 in test [1] was 52.1 nM; in test [2], 81 nM; in test [3] it was 123 nM.
Turning to `CCCNS(=O)(=O)c1ccc(Nc2ncc(C)c(Nc3ccc(CNS(=O)(=O)C4CC4)cc3)n2)cc1` [Compound I-177, N4-(4-cyclopropylsulfonylaminomethyl)phenyl-5-methyl-N2-(4-propylaminosulfonyl)phenyl-2,4-pyrimidinediamine], the IC50 worked out at 17.7 nM in test [1], 160 nM in test [2] and 107 nM in test [3].
For `Cc1cnc(Nc2ccc(S(=O)(=O)NCC3CC3)cc2)nc1Nc1ccc(CNS(=O)(=O)C2CC2)cc1` [Compound I-179, N2-(4-cyclopropylmethylaminosulfonyl)phenyl-N4-(4-cyclopropylsulfonylaminomethyl)phenyl-5-methyl-2,4-pyrimidinediamine], in that order: 45.9 nM, 290 nM and 365 nM.
For `COCCNS(=O)(=O)c1ccc(Nc2ncc(C)c(Nc3ccc(CNS(=O)(=O)C4CC4)cc3)n2)cc1` [Compound I-183, N4-(4-cyclopropylsulfonylaminomethyl)phenyl-N2-[4-(2-methoxyethyl)aminosulfonyl]phenyl-5-methyl-2,4-pyrimidinediamine], in that order: 66.7 nM, 155 nM and 207 nM.
For `Cc1ccc(Nc2ncc(C)c(Nc3cccc(CNS(=O)(=O)C4CC4)c3)n2)cc1S(=O)(=O)NC(C)C` [Compound I-209, N4-(3-cyclopropylsulfonylaminomethyl)phenyl-N2-(3-isopropylaminosulfonyl-4-methyl)phenyl-5-methyl-2,4-pyrimidinediamine], in that order: 113 nM, 131 nM and 529 nM.
`CNS(=O)(=O)c1cc(Nc2ncc(C)c(Nc3cccc(CNS(=O)(=O)C4CC4)c3)n2)ccc1C` [Compound I-211, N4-(3-cyclopropylsulfonylaminomethyl)phenyl-5-methyl-N2-(4-methyl-3-methylaminosulfonyl)phenyl-2,4-pyrimidinediamine]: the IC50 in test [1] turned out to be 103 nM; in test [2], 48.2 nM; in test [3] it was 177 nM.
For `CCNS(=O)(=O)c1ccc(Nc2ncc(C)c(Nc3cccc(CNS(=O)(=O)C4CC4)c3)n2)cc1` [Compound I-212, N4-(3-cyclopropylsulfonylaminomethyl)phenyl-N2-(4-ethylaminosulfonyl)phenyl-5-methyl-2,4-pyrimidinediamine], in that order: 236 nM, 160 nM and 215 nM.
As to `CCNS(=O)(=O)c1cc(Nc2ncc(C)c(Nc3cccc(CNS(=O)(=O)C4CC4)c3)n2)ccc1C` [Compound I-213, N4-(3-cyclopropylsulfonylaminomethyl)phenyl-N2-(3-ethylaminosulfonyl-4-methyl)phenyl-5-methyl-2,4-pyrimidinediamine], the IC50 was determined as 88.2 nM in test [1], 91.8 nM in test [2] and 125 nM in test [3].
Regarding `C#CCNS(=O)(=O)c1cc(Nc2ncc(C)c(Nc3cccc(CNS(=O)(=O)C4CC4)c3)n2)ccc1C` [Compound I-214, N4-(3-cyclopropylsulfonylaminomethyl)phenyl-5-methyl-N2-(4-methyl-3-propargylaminosulfonyl)phenyl-2,4-pyrimidinediamine], the IC50 came to 162 nM in test [1], 136 nM in test [2] and 190 nM in test [3].
With `CCCNS(=O)(=O)c1cc(Nc2ncc(C)c(Nc3cccc(CNS(=O)(=O)C4CC4)c3)n2)ccc1C` [Compound I-215, N4-(3-cyclopropylsulfonylaminomethyl)phenyl-5-methyl-N2-(4-methyl-3-propylaminosulfonyl)phenyl-2,4-pyrimidinediamine], the IC50 in test [1] is 132 nM; in test [2], 116 nM; in test [3] it was 385 nM.
For `Cc1ccc(Nc2ncc(C)c(Nc3cccc(CNS(=O)(=O)C4CC4)c3)n2)cc1S(=O)(=O)NCC1CC1` [Compound I-216, N2-(3-cyclopropylmethylaminosulfonyl-4-methyl)phenyl-N4-(3-cyclopropylsulfonylaminomethyl)phenyl-5-methyl-2,4-pyrimidinediamine] the same measures were 161 nM, 154 nM and 590 nM.
With `COCCCNS(=O)(=O)c1cc(Nc2ncc(C)c(Nc3cccc(CNS(=O)(=O)C4CC4)c3)n2)ccc1C` [Compound I-217, N4-(3-cyclopropylsulfonylaminomethyl)phenyl-N2-[3-(3-methoxypropyl)aminosulfonyl-4-methyl]phenyl-5-methyl-2,4-pyrimidinediamine], the IC50 was 80.2 nM in test [1], 129 nM in test [2] and 496 nM in test [3].
For `Cc1cnc(Nc2cccc(S(N)(=O)=O)c2)nc1Nc1ccc2c(c1)CCN(S(=O)(=O)C1CC1)C2` [II-2, N2-(3-aminosulfonyl)phenyl-N4-[(N-cyclopropylsulfonyl)-1,2,3,4-tetrahydroisoquinolin-6-yl]-5-methyl-2,4-pyrimidinediamine] the same measures were 7.75 nM, 30.4 nM and 107 nM.
Turning to `Cc1ccc(Nc2ncc(C)c(Nc3ccc4c(c3)CN(S(=O)(=O)C3CC3)C4)n2)cc1S(N)(=O)=O` [II-7, N2-(3-Aminosulfonyl-4-methylphenyl)-N4-[(2-cyclopropylsulfonyl)-isoindolin-5-yl]-5-methyl-2,4-pyrimidinediamine], the IC50 was determined as 130 nM in test [1], 155 nM in test [2] and 652 nM in test [3].
